Literature values, collected in patent US20200179539A1, “Contrast Agents and Methods of Making the Same for Spectral CT That Exhibit Cloaking and Auto-Segmentation” (BOARD OF REGENTS, THE UNIVERSITY OF TEXAS SYSTEM, priority 2017, published 2020).

Test system: rat
Conditions: rat oral

## [Na+].[Na+].[O]=[W](=[O])([O-])[O-] [sodium tungstate]
  LD50: 1,190 mg/Kg
